Article PMC5433425 (PeerJ, 2017)
Several values for one entry are separate records, joined by “and”; a condition that tells them apart may be missing. Equal entries are not always repeated. Peptide text beside a SMILES is read from it. * marks the point of attachment. βNA = c1ccc2cc(N*)ccc2c1

Columns and labels:
[1] = Cytotoxicity, AlamarBlue method; type: cell-based, human; conditions: human, human monocyte-derived macrophages, three days of exposure, AlamarBlue
Description: (§1) The blood was collected from healthy donors and the peripheral blood mononuclear cells were isolated by Ficoll-Paque Plus (GE Healthcare, Freiburg, Germany) density gradient centrifugation as previously described ([Machado et al., 2016]). […] Fresh medium was added at day 4 post isolation. The effect of the compounds on human monocyte-derived macrophages was evaluated using the AlamarBlue method (Molecular Probes, Life Technologies) ([O’Brien et al., 2000]), and by measuring the release of the lactate dehydrogenase (LDH) into the culture supernatants using the Pierce LDH Cytotoxicity Assay (ThermoFisher Scientific, Waltham, MA, USA) ([Chan, Moriwaki & Rosa, 2013]) according to the manufacturer’s instructions. Briefly, 5 × 10^4 cells were seeded in 96-well microplates treated with the compounds, and incubated at 37 °C with 5% CO2. After 72 h of treatment, the cell viability was assessed. For the AlamarBlue method, the dye was added to each well to a final concentration of 10% and incubated overnight at 37 °C and 5% CO2. The fluorescence was measured with a 540/35 excitation filter and a 590/20 emission filter in a Synergy HT multi-mode microplate reader. The release of LDH from damaged cells into culture supernatants, as an indicator of cytotoxicity, was measured in serum-free medium. Here the amount of enzyme activity correlates to the number of damaged cells. The specific lysis was calculated as follows: (treated cells—spontaneous LDH release)/ (maximum LDH release—spontaneous LDH release) ×100.

[2] = tested on: human monocyte-derived macrophages; assay: Cytotoxicity, AlamarBlue method; type: cell-based; conditions: for AlamarBlue fluorescence 530/25,590/35 (raw well reading): 72 h, listed as PAN
Description: as §1

[3] = tested on: human monocyte-derived macrophages; assay: Cytotoxicity, LDH release; type: cell-based; conditions: raw well reading, listed as PAN
Description: as §1

[4] = concentration 10 (unit not given)
[5] = concentration 20 (unit not given)
[6] = concentration 40 (unit not given)
[7] = concentration 80 (unit not given)
[8] = concentration 160 (unit not given)
[9] = concentration 320 (unit not given)
[10] = concentration 640 (unit not given)
[11] = concentration 1280 (unit not given)
[12] = concentration 2560 (unit not given)

N=C(N)NCCC[C@H](NC(=O)[C@@H](N)Cc1ccccc1)C(=O)Nc1ccc2ccccc2c1 [PAβN] (H-Phe-Arg-βNA)
CC50 at 3 days ([1]; read-out: CC50): 1270 µM
CC90 at 3 days ([1]; read-out: CC90): 3600 µM
AlamarBlue fluorescence 530/25,590/35 (raw well reading) ([2]; 10 uM): 5144 and 4515 and 5435
AlamarBlue fluorescence 530/25,590/35 (raw well reading) ([2]; 20 uM): 4321 and 4369 and 4263
AlamarBlue fluorescence 530/25,590/35 (raw well reading) ([2]; 40 uM): 4438 and 4039 and 4264
AlamarBlue fluorescence 530/25,590/35 (raw well reading) ([2]; 80 uM): 3781 and 3772 and 3994
AlamarBlue fluorescence 530/25,590/35 (raw well reading) ([2]; 160 uM): 3584 and 4033 and 3977
AlamarBlue fluorescence 530/25,590/35 (raw well reading) ([2]; 320 uM): 3356 and 3644 and 3382
AlamarBlue fluorescence 530/25,590/35 (raw well reading) ([2]; 640 uM): 3650 and 3381 and 3133
AlamarBlue fluorescence 530/25,590/35 (raw well reading) ([2]; 1280 uM): 2305 and 2619 and 2474
CC10 ([2]; three days of exposure, AlamarBlue): 447.71 µM
Pierce LDH absorbance 490 [3, 4]: 0.218 and 0.187 and 0.203
Pierce LDH absorbance 630 [3, 4]: 0.102 and 0.108 and 0.118
Pierce LDH absorbance 490 [3, 5]: 0.185 and 0.182
Pierce LDH absorbance 630 [3, 5]: 0.094 and 0.098 and 0.113
Pierce LDH absorbance 490 [3, 6]: 0.213 and 0.202 and 0.198
Pierce LDH absorbance 630 [3, 6]: 0.106 and 0.115 and 0.108
Pierce LDH absorbance 490 [3, 7]: 0.221 and 0.196 and 0.201
Pierce LDH absorbance 630 [3, 7]: 0.11 and 0.102 and 0.112
Pierce LDH absorbance 490 [3, 8]: 0.25 and 0.23 and 0.207
Pierce LDH absorbance 630 [3, 8]: 0.098 and 0.096 and 0.105
Pierce LDH absorbance 490 [3, 9]: 0.226 and 0.222 and 0.196
Pierce LDH absorbance 630 [3, 9]: 0.099 and 0.109 and 0.1
Pierce LDH absorbance 490 [3, 10]: 0.201 and 0.208 and 0.215
Pierce LDH absorbance 630 [3, 10]: 0.096 and 0.11 and 0.112
Pierce LDH absorbance 490 [3, 11]: 0.434 and 0.517 and 0.508
Pierce LDH absorbance 630 [3, 11]: 0.175 and 0.213 and 0.218
Pierce LDH absorbance 490 [3, 12]: 0.612 and 0.538 and 0.513
Pierce LDH absorbance 630 [3, 12]: 0.334 and 0.228 and 0.206
